Format: physicochemical
Protocol: (−)-Gossypol acetic acid co-crystals were yellow or pale yellow and needle shaped. […] The co-crystals were insoluble in water. The uncorrected melting point of the co-crystals was determined to be 178-180° C. using a Mel-Temp apparatus.

- solubility in acetone: readily soluble
- solubility in chloroform: slightly soluble
- solubility in ethanol: slightly soluble
- solubility in ether: readily soluble
- solubility in petroleum: sparsely soluble
- solubility in water: insoluble
Compound: Cc1cc2c(C(C)C)c(O)c(O)c(C=O)c2c(O)c1-c1c(C)cc2c(C(C)C)c(O)c(O)c(C=O)c2c1O [(−)-Gossypol acetic acid co-crystals, (−)-gossypol acetic acid]

— patent US7432300B2, “Gossypol co-crystals and the use thereof” (The Regents of the University of Michigan, priority 2004, dated 2008)
